In patent US20240209456A1, “METHODS AND COMPOSITIONS RELATED TO CELL-CYCLE RNA's” (BETH ISRAEL DEACONESS MEDICAL CENTER, priority 2021, published 2024):
*1 amine or outer side, *2 acyl side, *3 side chain or, on linkers, in order; H or OH if unused. Where a SMILES comes first, the peptide text is derived from it. Bridges are numbered along the chain shown (N, C = ends). Roman numbers before positions name the chains, in order. [ ]: non-standard residue; d: D form. Actinocin(9to1) = Cc1c2oc3c(C)ccc(C(=O)[*:1])c3nc-2c(C(=O)[*:2])c(N)c1=O; NMeV = CN[C@H](C(=O)O)C(C)C; Sar = CNCC(=O)O

Columns and labels:
[1] = system: H2A.Z; experiment: ChIP-Seq with H2A.Z antibody, occupancy at TSSs; type: cell-based, human; conditions: for number of TSS with comparable (2-fold) decrease in total H2A.Z occupancy: HL-60, 2 hr treatment, vs cells without treatment, 38,512 TSS compared; for occupancy levels of unmodified H2A.Z at the TSS, genome-wide / H2A.Z peak intensity ratio, PU.1 locus (DMSO = 1) / H2A.Z peak intensity ratio, c-MYC locus (DMSO = 1): HL-60, 2 hr; for occupancy levels of unmodified H2A.Z at the TSS, genome-wide: vs mock-treated (DMSO), FIG. 4C; for H2A.Z peak intensity ratio, PU.1 locus (DMSO = 1) / H2A.Z peak intensity ratio, c-MYC locus (DMSO = 1): [DMSO/DRB/ActD]
Source text: (§1) Two transcription inhibitors, Actinomycin D (ActD; RNA Polymerase I, II and III inhibitor) and 5,6-Dichlorobenzimidazole 1-β-D-ribofuranoside (DRB; RNAPII Inhibitor), were used at concentrations sufficient to block both RNA Polymerases II and III. Cells were synchronized with a double thymidine block and released into S Phase with ActD/DRB added. The rationale behind the use of ActD and DRB is: (i) to globally assess the effect of SPEARs suppression over a short time frame; (ii) to test effects resulting from the two different pathways triggered by ActD and DRB; and (iii) to take advantage of the reversibility of DRB treatment. […] Two hours after drug treatment, cells were crosslinked and subjected to ChIP-Seq analyses. […] Relative changes were then investigated in the footprints of unmodified H2A.Z and acH2A.Z in the vicinity of TSSs that result from DRB- and ActD-induced inhibition of SPEARs. The enrichments of ChIP-Seq signals for H2A.Z and acH2A.Z around 38,512 TSS (defined in the hg38 UCSC canonical gene table) following drug treatment were then compared with their occupancy in mock-treated (DMSO) cells. […] ActD-treated cells followed this pattern with a greater than 2-fold decrease in the levels of acH2A.Z at 6,283 TSS compared to untreated samples. […] For the c-MYC and PU1 loci, respectively, the ratios of control (DMSO) to drug treated H2A.Z peak intensities were: [DMSO/DRB/ActD]^c-MYC=1/0.76/0.67 and [DMSO/DRB/ActD]^PU.1=1/0.87/0.82; and the ratios of control (DMSO) to drug treated acH2A.Z peak intensities were: [DMSO/DRB/ActD]^c-MYC=1/0.62/0.36 and [DMSO/DRB/ActD]^PU.1=1.0/0.25/0.13. […] For MYB the ratios of control (DMSO) to drug treated acH2A.Z peak intensities are: [DMSO/DRB/ActD]^MYB=0.62/0.89/1.0, which corresponds to the increases in its SPEARs levels (FIG. 10C).
(§2) Double Thymidine block (early S-phase block) was carried out as described. Briefly, HL-60 cells were grown overnight to 70-80% confluence, washed twice with 1×PBS and cultured in DMEM (10% FCS)+2.5 mM Thymidine for 18 h (first block). Thymidine was washed out with 1×PBS and cells were grown in DMEM (10% FCS). After 8 hrs cells were cultured in the presence of thymidine for 18 h (second block) and then released as described. Synchrony was monitored by flow cytometry analysis of propidium iodide-stained cells using a LSRII flow cytometer (BD Biosciences) at the Harvard Stem Cell Institute/Beth Israel Deaconess Center flow cytometry facility.
(§3) DRB and Actinomycin D treatments were carried out as described. Briefly, after release from double thymidine block, HL-60 cells were treated with 100 μM of 5,6-Dichlorobenzimidazole 1-β-D-ribofuranoside (DRB) (Sigma Aldrich) or 0.8 μM of Actinomycin D (Sigma Aldrich) as indicated at each time point.
(§4) ChIP was performed as follows. Cells were crosslinked with 1% formaldehyde for 10 min at r.t. Pellets of 1×10^6 cells were used for immunoprecipitation and lysed for 10 minutes on ice and chromatin fragmented using a Branson 250 digital sonicator. Each ChIP was performed with 4 ug of antibody, incubated overnight at 4° C. A 50/50 slurry of protein A and protein G Dynabeads was used to capture enriched chromatin, which was then washed before reverse-crosslinking and proteinase K digestion at 65° C. AMPure XP beads were used to clean up and isolate ChIP DNA for subsequent library construction. The following antibodies were used for ChIP: H2A.Z (Abcam ab4174, lot GR3176820-1), acH2A.Z (Abcam ab18262, lot GR306397-1), TIP60 antibody; and IgG (Abcam ab171870). Fold enrichment was calculated using the formula 2^(−ΔΔCt(ChIP/non-immune serum)). Primer sets used for ChIP are listed in Table 2. nRIP was performed and crosslinked nuclei were collected as follows: 1. 60×10^6 HL-60 cells were crosslinked with 1% formaldehyde (formaldehyde solution, freshly made: 50 mM HEPES-KOH; 100 mM NaCl; 1 mM EDTA; 0.5 mM EGTA; 11% formaldehyde) for 10 min at room temperature. […]

[2] = system: acH2A.Z; experiment: ChIP-Seq with acH2A.Z antibody, occupancy at TSSs; type: cell-based, human; conditions: for number of TSS with at least / greater than 2-fold drop in acH2A.Z occupancy: HL-60, 2 hr treatment, vs cells without treatment, 38,512 TSS compared; for acH2A.Z enrichment at the TSS, genome-wide / acH2A.Z peak intensity ratio, MYB locus (DMSO = 0.62, ActD = 1.0) / acH2A.Z peak intensity ratio, PU.1 locus (DMSO = 1.0) / acH2A.Z peak intensity ratio, c-MYC locus (DMSO = 1): HL-60, 2 hr; for acH2A.Z enrichment at the TSS, genome-wide: vs mock-treated (DMSO), FIG. 4C; for acH2A.Z peak intensity ratio, MYB locus (DMSO = 0.62, ActD = 1.0) / acH2A.Z peak intensity ratio, PU.1 locus (DMSO = 1.0) / acH2A.Z peak intensity ratio, c-MYC locus (DMSO = 1): [DMSO/DRB/ActD]
Source text: as §1, §2, §3, §4

Cc1c2oc3c(C)ccc(C(=O)N[C@@H]4C(=O)N[C@H](C(C)C)C(=O)N5CCC[C@H]5C(=O)N(C)CC(=O)N(C)[C@@H](C(C)C)C(=O)O[C@@H]4C)c3nc-2c(C(=O)N[C@@H]2C(=O)N[C@H](C(C)C)C(=O)N3CCC[C@H]3C(=O)N(C)CC(=O)N(C)[C@@H](C(C)C)C(=O)O[C@@H]2C)c(N)c1=O [ActD, Actinomycin D] (I: T[dV]P[Sar][NMeV] / II: T[dV]P[Sar][NMeV]; ester I:1-I:C, II:1-II:C; linker I:N-II:N via Actinocin(9to1))
number of TSS with comparable (2-fold) decrease in total H2A.Z occupancy [1]: 650 TSS | occupancy levels of unmodified H2A.Z at the TSS, genome-wide [1]: only modest changes | H2A.Z peak intensity ratio, PU.1 locus (DMSO = 1) [1]: 0.82 | H2A.Z peak intensity ratio, c-MYC locus (DMSO = 1) [1]: 0.67 | number of TSS with at least / greater than 2-fold drop in acH2A.Z occupancy [2]: 6,283 TSS | acH2A.Z enrichment at the TSS, genome-wide [2]: drastic reduction | acH2A.Z peak intensity ratio, MYB locus (DMSO = 0.62, ActD = 1.0) [2]: 1.0 | acH2A.Z peak intensity ratio, PU.1 locus (DMSO = 1.0) [2]: 0.13 | acH2A.Z peak intensity ratio, c-MYC locus (DMSO = 1) [2]: 0.36

OC[C@H]1O[C@@H](n2cnc3cc(Cl)c(Cl)cc32)[C@H](O)[C@@H]1O [DRB, 5,6-Dichlorobenzimidazole 1-β-D-ribofuranoside]
number of TSS with comparable (2-fold) decrease in total H2A.Z occupancy [1]: 398 TSS | occupancy levels of unmodified H2A.Z at the TSS, genome-wide [1]: only modest changes | H2A.Z peak intensity ratio, PU.1 locus (DMSO = 1) [1]: 0.87 | H2A.Z peak intensity ratio, c-MYC locus (DMSO = 1) [1]: 0.76 | number of TSS with at least / greater than 2-fold drop in acH2A.Z occupancy [2]: 3,394 TSS | acH2A.Z enrichment at the TSS, genome-wide [2]: drastic reduction | acH2A.Z peak intensity ratio, MYB locus (DMSO = 0.62, ActD = 1.0) [2]: 0.89 | acH2A.Z peak intensity ratio, PU.1 locus (DMSO = 1.0) [2]: 0.25 | acH2A.Z peak intensity ratio, c-MYC locus (DMSO = 1) [2]: 0.62
